Molecules are shown by their SMILES. In brackets after ≈: the same amount, converted by molar mass.

This note sets out measurements from patent US8071605B2, “Piperidine compounds for use in the treatment of bacterial infections” (AstraZeneca AB, priority 2008, dated 2011).

One assay concerns the target S. aureus GyrB ATPase (Staphylococcus aureus, UniProt P0A0K8). The assay is described as follows: S. aureus GyrB ATPase inhibition (ammonium molybdate/malachite green phosphate detection). It is filed as biochemical. Particulars: compound concentration of 1 μM (unless otherwise noted). In outline: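 S. aureus GyrB (250 pM) with E. coli GyrA (250 pM), 250 μM ATP and sheared DNA in pH 7.5 Hepes; phosphate release by malachite green/molybdate at 650 nm. Values are percent inhibition at 1 μM compound unless noted, against 2% DMSO and EDTA controls.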

In another assay the test system is Streptococcus pneumoniae. Briefly: Bacterial susceptibility testing in liquid media (MIC). It is filed as cell-based. Particulars: against Streptococcus pneumoniae; lowest concentration reducing growth by 80% or more. The source says: Compounds may be tested for antimicrobial activity by susceptibility testing in liquid media. Compounds may be dissolved in dimethylsulfoxide and tested in 10 doubling dilutions in the susceptibility assays. The organisms used in the assay may be grown overnight on suitable agar media and then suspended in a liquid medium appropriate for the growth of the organism. The suspension can be a 0.5 McFarland and a further 1 in 10 dilution can be made into the same liquid medium to prepare the final organism suspension in 100 μL. Plates can be incubated under appropriate conditions at 37° C. for 24 hrs prior to reading. The Minimum Inhibitory Concentration (MIC) may be determined as the lowest drug concentration able to reduce growth by 80% or more.

S. aureus GyrB ATPase, sequence (P0AES4 whole entry): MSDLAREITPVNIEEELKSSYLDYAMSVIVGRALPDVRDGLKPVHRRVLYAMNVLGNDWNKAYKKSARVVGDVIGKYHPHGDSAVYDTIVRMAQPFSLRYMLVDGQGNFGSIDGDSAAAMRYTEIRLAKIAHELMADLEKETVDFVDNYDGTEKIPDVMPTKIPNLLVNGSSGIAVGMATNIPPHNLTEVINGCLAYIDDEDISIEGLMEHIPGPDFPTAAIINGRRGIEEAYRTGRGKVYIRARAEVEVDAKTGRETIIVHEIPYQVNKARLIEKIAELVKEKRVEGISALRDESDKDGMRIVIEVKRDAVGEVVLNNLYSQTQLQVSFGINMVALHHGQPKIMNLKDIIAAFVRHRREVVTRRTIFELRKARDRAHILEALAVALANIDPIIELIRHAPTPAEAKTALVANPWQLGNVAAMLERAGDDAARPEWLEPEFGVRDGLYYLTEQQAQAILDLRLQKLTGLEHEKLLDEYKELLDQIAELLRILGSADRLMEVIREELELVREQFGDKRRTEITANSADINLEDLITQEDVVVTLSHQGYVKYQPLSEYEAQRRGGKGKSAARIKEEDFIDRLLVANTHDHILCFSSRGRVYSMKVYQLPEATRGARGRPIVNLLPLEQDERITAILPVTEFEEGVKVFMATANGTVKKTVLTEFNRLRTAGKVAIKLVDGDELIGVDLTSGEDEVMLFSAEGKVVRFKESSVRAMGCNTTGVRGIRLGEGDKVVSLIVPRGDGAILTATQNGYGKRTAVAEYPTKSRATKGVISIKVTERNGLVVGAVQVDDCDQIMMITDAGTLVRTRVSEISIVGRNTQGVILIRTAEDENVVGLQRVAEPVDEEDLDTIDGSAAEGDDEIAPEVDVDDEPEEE
S. aureus GyrB ATPase, sequence (P0A0K8 whole entry): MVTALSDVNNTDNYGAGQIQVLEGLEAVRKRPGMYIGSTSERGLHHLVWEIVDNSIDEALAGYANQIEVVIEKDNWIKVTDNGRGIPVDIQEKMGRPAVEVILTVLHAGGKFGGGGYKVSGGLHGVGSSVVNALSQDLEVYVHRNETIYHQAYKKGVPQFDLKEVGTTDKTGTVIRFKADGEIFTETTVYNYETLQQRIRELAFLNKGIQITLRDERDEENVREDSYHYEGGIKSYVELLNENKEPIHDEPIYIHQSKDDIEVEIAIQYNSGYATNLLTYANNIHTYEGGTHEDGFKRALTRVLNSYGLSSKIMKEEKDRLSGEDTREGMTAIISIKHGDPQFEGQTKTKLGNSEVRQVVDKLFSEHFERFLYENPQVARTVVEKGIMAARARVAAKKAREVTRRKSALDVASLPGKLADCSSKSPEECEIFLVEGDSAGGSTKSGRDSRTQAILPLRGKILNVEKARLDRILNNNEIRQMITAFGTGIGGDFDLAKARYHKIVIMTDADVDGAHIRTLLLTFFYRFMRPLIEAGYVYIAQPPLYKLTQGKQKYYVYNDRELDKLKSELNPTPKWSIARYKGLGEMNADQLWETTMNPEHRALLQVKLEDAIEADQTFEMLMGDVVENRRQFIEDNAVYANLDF

`CCO[C@H]1CN(c2nc(-c3cnc(N4CCCCC4)cn3)c(C(=O)O)s2)CC[C@H]1NC(=O)c1[nH]c(C)c(Cl)c1Cl` [Example 86, 2-[(3S,4R)-4-{[(3,4-dichloro-5-methyl-1H-pyrrol-2-yl)carbonyl]amino}-3-ethoxypiperidin-1-yl]-4-[5-(piperidin-1-yl)pyrazin-2-yl]-1,3-thiazole-5-carboxylic acid]: the inhibition at 1 µM at S. aureus GyrB ATPase amounted to 105%.

As to `CCO[C@H]1CN(c2nc(-c3ncccc3F)c(C(=O)O)s2)CC[C@H]1NC(=O)c1[nH]c(C)c(Cl)c1C#N` [Example 14], the inhibition at 1 µM against S. aureus GyrB ATPase came to 91%.

Regarding `CO[C@@H]1CN(c2nc(-c3cnc(N4CCN(C)CC4)cn3)c(C(=O)O)s2)CC[C@@H]1NC(=O)c1[nH]c(C)c(Cl)c1Cl` [Example 61, 2-[(3R,4S)-4-{[(3,4-dichloro-5-methyl-1H-pyrrol-2-yl)carbonyl]amino}-3-methoxypiperidin-1-yl]-4-[5-(4-methylpiperazin-1-yl)pyrazin-2-yl]-1,3-thiazole-5-carboxylic acid], the inhibition at 1 µM at S. aureus GyrB ATPase worked out at 105%.

As for `CCC(CC)N1CCN(c2cnc(-c3nc(N4CC[C@@H](NC(=O)c5[nH]c(C)c(Cl)c5Cl)[C@@H](OC)C4)sc3C(=O)O)cn2)CC1` [Example 137], the inhibition at 1 µM against S. aureus GyrB ATPase stood at 101%.

Regarding `CCCO[C@H]1CN(c2nc(-c3cnccn3)c(C(=O)O)s2)CC[C@H]1NC(=O)c1cc(Cl)c(C)[nH]1` [Example 203, 2-[(3S,4R)-4-{[(4-chloro-5-methyl-1H-pyrrol-2-yl)carbonyl]amino}-3-propoxypiperidin-1-yl]-4-(pyrazin-2-yl)-1,3-thiazole-5-carboxylic acid], the inhibition at 1 µM against S. aureus GyrB ATPase turned out to be 108%.

Regarding `CCO[C@H]1CN(c2nc(-c3cnc(NCCN(C)C)cn3)c(C(=O)O)s2)CC[C@H]1NC(=O)c1[nH]c(C)c(Cl)c1Cl` [Example 94], the inhibition at 1 µM against S. aureus GyrB ATPase is 104%.

For the compound `Cc1[nH]c(C(=O)N[C@@H]2CCN(c3nc(-c4cnc(N5CCN[C@H](C)C5)cn4)c(C(=O)O)s3)C[C@@H]2C)c(Cl)c1Cl` [Example 181, 2-[(3S,4R)-4-{[(3,4-dichloro-5-methyl-1H-pyrrol-2-yl)carbonyl]amino}-3-methylpiperidin-1-yl]-4-{5-[(3R)-3-methylpiperazin-1-yl]pyrazin-2-yl}-1,3-thiazole-5-carboxylic acid], the inhibition at 1 µM at S. aureus GyrB ATPase worked out at 101%.

Consider `CCO[C@H]1CN(c2nc(-c3cnc(N4CCN(C)CC4)cn3)c(C(=O)O)s2)CC[C@H]1NC(=O)c1[nH]c(C)c(Cl)c1Cl` [Example 88], for which, on S. aureus GyrB ATPase, the inhibition at 1 µM came to 107%.

On to `Cc1[nH]c(C(=O)N[C@@H]2CCN(c3nc(-c4cnccn4)c(C(=O)O)s3)C[C@@H]2C)c(Cl)c1Cl` [Example 25], for which, on S. aureus GyrB ATPase, the inhibition at 1 µM came out at 119%.

Take `Cc1[nH]c(C(=O)N[C@@H]2CCN(c3nc(-c4ncnn4C)c(C(=O)O)s3)C[C@@H]2C)c(Cl)c1Cl` [Example 22]: the inhibition at 1 µM at S. aureus GyrB ATPase came out at 112%.

Turning to `COCC(COC)Nc1cnc(-c2nc(N3CC[C@@H](NC(=O)c4[nH]c(C)c(Cl)c4Cl)[C@@H](C)C3)sc2C(=O)O)cn1` [Example 172, 2-[(3S,4R)-4-{[(3,4-dichloro-5-methyl-1H-pyrrol-2-yl)carbonyl]amino}-3-methylpiperidin-1-yl]-4-{5-[(1,3-dimethoxypropan-2-yl)amino]pyrazin-2-yl}-1,3-thiazole-5-carboxylic acid], the inhibition at 1 µM at S. aureus GyrB ATPase came to 109%.

Consider `CCN(CC)CCN1CCN(c2cnc(-c3nc(N4CC[C@@H](NC(=O)c5[nH]c(C)c(Cl)c5Cl)[C@@H](C)C4)sc3C(=O)O)cn2)CC1` [Example 180, 2-[(3S,4R)-4-{[(3,4-dichloro-5-methyl-1H-pyrrol-2-yl)carbonyl]amino}-3-methylpiperidin-1-yl]-4-(5-{4-[2-(diethylamino)ethyl]piperazin-1-yl}pyrazin-2-yl)-1,3-thiazole-5-carboxylic acid], for which the inhibition at 1 µM against S. aureus GyrB ATPase turned out to be 103%.

Consider `Cc1[nH]c(C(=O)N[C@@H]2CCN(c3nc(-c4cnc(N5CCOCC5)cn4)c(C(=O)O)s3)C[C@@H]2C)c(Cl)c1Cl` [Example 166, 2-[(3S,4R)-4-{[(3,4-dichloro-5-methyl-1H-pyrrol-2-yl)carbonyl]amino}-3-methylpiperidin-1-yl]-4-[5-(morpholin-4-yl)pyrazin-2-yl]-1,3-thiazole-5-carboxylic acid], for which, at S. aureus GyrB ATPase, the inhibition at 1 µM is 110%.

In the case of `Cc1[nH]c(C(=O)N[C@@H]2CCN(c3nc(-c4ncccc4F)c(C(=O)O)s3)C[C@@H]2C)cc1Cl` [Example 20], the inhibition at 1 µM at S. aureus GyrB ATPase amounted to 118%.

With `Cc1[nH]c(C(=O)N[C@@H]2CCN(c3nc(-c4cnc(NCCN(C)C)cn4)c(C(=O)O)s3)C[C@@H]2C)c(Cl)c1Cl` [Example 174, 2-[(3S,4R)-4-{[(3,4-dichloro-5-methyl-1H-pyrrol-2-yl)carbonyl]amino}-3-methylpiperidin-1-yl]-4-(5-{[2-(dimethylamino)ethyl]amino}pyrazin-2-yl)-1,3-thiazole-5-carboxylic acid], the inhibition at 1 µM on S. aureus GyrB ATPase was determined as 102%.

With `CCN1CCN(c2cnc(-c3nc(N4CC[C@@H](NC(=O)c5[nH]c(C)c(Cl)c5Cl)[C@@H](C)C4)sc3C(=O)O)cn2)CC1` [Example 164, 2-[(3S,4R)-4-{[(3,4-dichloro-5-methyl-1H-pyrrol-2-yl)carbonyl]amino}-3-methylpiperidin-1-yl]-4-[5-(4-ethylpiperazin-1-yl)pyrazin-2-yl]-1,3-thiazole-5-carboxylic acid], the inhibition at 1 µM on S. aureus GyrB ATPase was determined as 117%.

Take `Cc1[nH]c(C(=O)N[C@@H]2CCN(c3nc(-c4cnc(N5CCN(CC6CCCO6)CC5)cn4)c(C(=O)O)s3)C[C@@H]2C)c(Cl)c1Cl` (stereo partly drawn) [Example 183, 2-[(3S,4R)-4-{[(3,4-dichloro-5-methyl-1H-pyrrol-2-yl)carbonyl]amino}-3-methylpiperidin-1-yl]-4-{5-[4-(tetrahydrofuran-2-ylmethyl)piperazin-1-yl]pyrazin-2-yl}-1,3-thiazole-5-carboxylic acid]: the inhibition at 1 µM at S. aureus GyrB ATPase came out at 116%.

In the case of `Cc1[nH]c(C(=O)N[C@@H]2CCN(c3nc(-c4cnc(N5CCN(C)CC5)cn4)c(C(=O)O)s3)C[C@@H]2C)c(Cl)c1Cl` [Example 167, 2-[(3S,4R)-4-{[(3,4-dichloro-5-methyl-1H-pyrrol-2-yl)carbonyl]amino}-3-methylpiperidin-1-yl]-4-[5-(4-methylpiperazin-1-yl)pyrazin-2-yl]-1,3-thiazole-5-carboxylic acid], the inhibition at 1 µM against S. aureus GyrB ATPase came out at 113%.

Regarding `CCO[C@H]1CN(c2nc(-c3cnc(N4CCN(CCN(CC)CC)CC4)cn3)c(C(=O)O)s2)CC[C@H]1NC(=O)c1[nH]c(C)c(Cl)c1Cl` [Example 101], the inhibition at 1 µM against S. aureus GyrB ATPase turned out to be 117%.

For the compound `COCCn1ccnc1-c1nc(N2CC[C@@H](NC(=O)c3[nH]c(C)c(Cl)c3Cl)[C@@H](C)C2)sc1C(=O)O` [Example 23], the MIC against Streptococcus pneumoniae was 0.78 µg/mL (≈ 1.44 µM). For the same compound, at S. aureus GyrB ATPase, the inhibition at 1 µM came out at 100%.

For `CO[C@H]1CN(c2nc(-c3cnc(NCCN4CCN(C)CC4)cn3)c(C(=O)O)s2)CC[C@H]1NC(=O)c1[nH]c(C)c(Cl)c1Cl` [Example 133], the inhibition at 1 µM on S. aureus GyrB ATPase is 112%.

Turning to `Cc1[nH]c(C(=O)N[C@@H]2CCN(c3nc(-c4cnc(NCCN5CCCC5=O)cn4)c(C(=O)O)s3)C[C@@H]2C)c(Cl)c1Cl` [Example 169, 2-[(3S,4R)-4-{[(3,4-dichloro-5-methyl-1H-pyrrol-2-yl)carbonyl]amino}-3-methylpiperidin-1-yl]-4-(5-{[2-(2-oxopyrrolidin-1-yl)ethyl]amino}pyrazin-2-yl)-1,3-thiazole-5-carboxylic acid], the inhibition at 1 µM against S. aureus GyrB ATPase stood at 102%.
